Assay results as given in patent US20070078373A1, “PULSATILE DELIVERY OF GONADOTROPIN-RELEASING HORMONE FROM A PRE-LOADED INTEGRATED ELECTROTRANSPORT PATCH” (Vyteris, Inc., priority 2005, published 2007).
Counter-ions that a name gives are not always drawn.

Columns and labels:
[1] = Pulsatile transdermal iontophoresis of GnRH in pigs, plasma PK (Example 1); assay type: in vivo, Yorkshire pigs; details: for plasma concentrations: condition #2 (2 mg/mL patch)
Experimental: (§1) Six prepubescent female Yorkshire pigs were used for this Example. A crossover design was used whereby each animal received both subcutaneous (SC) and iontophoretic treatments. Subcutaneous and iontophoresis experiments were spaced two weeks apart to meet acceptable animal blood draw limits. The subcutaneous injection experiments were performed first in the sequence. During the two week study the animal weights ranged from 15-32 kg.
The animal hair were clipped the night before the experiment. Prior to applying patches, a skin site free of obvious cuts and scrapes was selected. The selected skin site was wiped clean with warm water and an alcohol-loaded gauze pad and patted dry.
Iontophoretic hydrogel patches prepared according to Patch Fabrication Platform I (5 cm^2 active area) were used in these studies. The patches were loaded with GnRH (HCl) solution to provide final concentration of either 10 mg/mL, GnRH (HC 1) or 2 mg/mL GnRH (HCl) in the patch. The pH of the gel surface was from about 5 to about 5.5.
(§2) All animals were placed in a sling under general propofol anesthesia and jugular, ear vein and arterial catheters placed percutaneously. For subcutaneous injection studies, a venous catheter was placed against the lower abdominal wall of the animal and 20 μg of drug was injected at 90-min intervals (total 5 dosing cycles). Each drug injection was followed by saline flush. The subcutaneous injection study in each animal was followed by iontophoresis administration in the same animal two weeks later. The iontophoresis experiments also involved five dosing cycles at 90-minute intervals. The drug loaded patches were placed on the back of the animal just off the midline section.
A laboratory controller was used as a constant current source. The controller is a battery operated electrotransport controller and delivers a preprogrammed current density profile for experimental studies. In addition, the controller measures the voltage across and the current through an electrotransport patch during drug delivery. The accuracy of the delivered current is ±1% of full-scale. The controller has a maximum voltage of 35 V and can take readings once per second for up to an hour. The accuracy of the recorded current is ±1% of full-scale. The accuracy of the recorded voltage is 0.8 V Max. There are no moving parts on the controller. Infrared transmission of the delivery profile and data retrieval to a computer ensures there are no disturbances during the treatment of a subject.
Example 1 utilized a current delivery profile comprising five cycles of eight minute pulses each having a current of 1.2 mA, with rest times of 90 minutes between pulses.
(§3) Blood samples were drawn from the jugular catheter into pre-chilled 3 mL vacutainer tubes using the following protocol. The tubes contained EDTA (1 mg/mL of blood) and Aprotinin (500 KIU/mL, of blood). A 2 mL, flush volume of blood was drawn followed by a 3 mL sample. The blood samples were withdrawn as outlined in Table G below. The tubes were centrifuged within 15 min of blood collection at 1600 rpm for 15 min at 4° C. The separated plasma was split into two (approximately equal volume) 2 mL tubes and frozen on dry ice. Samples were stored at −70° C. until shipment. The samples were analyzed using an I^125 radio labeled immnunoassay.
All experimental animals were allowed to recover from anesthesia after sutaneous treatment. The jugular catheter was left over night and removed after 24 hour blood draw was complete. Immediately following the 24 hour iontophoresis blood draw, animals were euthanized. Animal 1 died seven days after subcutaneous treatment. Animals 2, 3, and 4 received iontophoresis under condition #1 and animals 5 and 6 received iontophoresis under condition #2.

in vivo = assay: in vivo; parameters: species or system Yorkshire pigs; details: pig, sc
Experimental: as §1
The subcutaneous dosing solutions of concentration 200 μg/mL and 400 μg/mL, were prepared in pH 5.0 water (pH of maximum stability), Pigs 1 and 2 received 50 μl of 400 μg/mL, solution, while pigs 3-6 received 100 μl of 200 μg/mL, solution for each of the 5 doses.
as §2, §3

[2] = parameters: species or system Yorkshire pigs; details: pig, in vivo
Experimental: Six prepubescent female Yorkshire pigs (numbered from 7-12) were used in this set of studies. Each animal received two iontophoretic treatments. A first set of three animals received 50 mg/mL, drug concentration using five 8-min pulses (condition #3) and a week later received the same concentration using eight 5-min pulses (condition #5). A second set of three animals received 25 mg/mL drug concentration using five 8-min pulses (condition #4) and a week later received the same concentration using eight 5-min pulses (condition #6). The five 8-min pulse experiments were performed first in the sequence. During the span of the study the animal weights ranged from approximately 18-33 kg.
The animals were prepared as described in Example 1. Inotophoretic hydrogel patches prepared according to Patch Fabrication Platform I (5 cm^2 active area) were used in these studies. The patches were loaded with GnRH (HCl) solution to provide final concentration of either 25 mg/mL GnRH (HC l) or 50 mg/mL GnRH (HCl) in the patch. The pH of the gel surface was measured to be 5.0±0.5. The patches were placed on the back of the animal just off the midline section. The controller, as described in Example 1, was used. One patch each was used throughout the entire delivery period for conditions 3-5. For condition #6, the patch was replaced with a fresh patch after pulse 5. The experimental conditions are summarized in Table K. Example 2 utilized current delivery profiles comprising five cycles of eight minute pulses each having a current of 1.2 mA for conditions #3 and #4; and eight cycles of five minute pulses each having a current of 1.2 mA for conditions #5 and #6. Each profile had rest times of 90 minutes between pulses.
Blood samples were drawn from a jugular catheter at times as disclosed in Table L, and treated according to the protocol set forth in Example 1.

[3] = parameters: species or system Yorkshire pigs; details: pig, in vivo; remark: listed apart in the source
Experimental: Three prepubescent female Yorkshire pigs (numbered 13-15) were used in this Example. Each animal received one iontophoretic treatment for eight 90 minute cycles and a ninth cycle with subcutaneous (“SC”) dosing for comparison. The ionotophoretic devices were prepared according to Patch Fabrication Platform I (5 cm^2 active area). The patches were loaded with GnRH (HCl) solution to provide final concentration of 25 mg/mL, GnRH. The pH of the gel surface was measured to be 5.0±0.5. The patches were stored at 5° C. at all times except during travel to the study site. The SC dosing solution used in animal 13 was prepared 4 days before use and stored at room temperature (“RT”). The SC dosing solution used in animal 14 was prepared 6 days before use and stored mainly at RT. The SC dosing solution used in animal 15 was prepared 1 day before use and stored at RT. During the study, the animal weights ranged from approximately 15-30 kg. […] The animals were prepared as described in Example 1. The drug loaded patches were placed on the back of the animal just off the midline section. One patch each was used throughout the eight delivery pulses. The controller, as described in Example 1, was used as a constant current source. Blood samples were drawn from a jugular catheter at times as disclosed in Table P, and treated according to the analytical protocol set forth in Example 1.

[4] = condition #1, animal weight normalized, pulses 1-5

In the case of `CC(C)C[C@H](NC(=O)CNC(=O)[C@H](Cc1ccc(O)cc1)NC(=O)[C@H](CO)NC(=O)[C@H](Cc1c[nH]c2ccccc12)NC(=O)[C@H](Cc1cnc[nH]1)NC(=O)[C@@H]1CCC(=O)N1)C(=O)N[C@@H](CCCNC(=N)N)C(=O)N1CCC[C@H]1C(=O)NCC(N)=O` [GnRH, gonadorelin hydrochloride], the “ratio of the mean CV for AUC between iontophoretic and subcutaneous drug delivery” value ([1]; condition #1, all pulses) is reported as 1.9, the “ratio of the mean CV for Cmax between iontophoretic and subcutaneous drug delivery” value ([1]; condition #1, all pulses) is reported as 2.0 and the “Mean coefficient of variation (for AUC) for iontophoretic drug delivery” value [1, 4] is reported as 35%. The “mean CV (for Cmax) for iontophoretic drug delivery” value [1, 4] was 40%, the “mean CV (for AUC) for iontophoretic drug delivery” value ([1]; condition #1, pulse 1 excluded) was 15% and the “mean CV (for Cmax) for iontophoretic drug delivery” value ([1]; condition #1, pulse 1 excluded) was 22%. The “ratio of the mean CV for AUC between iontophoretic and subcutaneous drug delivery” value ([1]; condition #1, pulse 1 excluded) was 0.83, the “ratio of the mean CV for Cmax between iontophoretic and subcutaneous drug delivery” value ([1]; condition #1, pulse 1 excluded) was 1.1 and the “percent difference between iontophoresis and subcutaneous means, of the subcutaneous AUC” value ([1]; condition #1 vs subcutaneous 20 μg dose, animal weight normalized) was 47%. The “percent difference between iontophoresis and subcutaneous Cmax means, of the subcutaneous mean Cmax” value ([1]; condition #1 vs subcutaneous, animal weight normalized) was 32%, the plasma concentrations ([1]; animal 5, first 3 pulses) was “below assay limit of detection” and the plasma concentrations ([1]; animal 6, first pulse) was “below assay limit of detection”. The “Mean AUC for pulses 4 and 5, fold less than iontophoresis condition #1” value ([1]; condition #2 vs condition #1) was 5.6 fold, the “Mean Cmax for pulses 4 and 5, fold less than iontophoresis condition #1” value ([1]; condition #2 vs condition #1) was 4.6 fold and the Tmax ([1]; female, Yorkshire, pig, in vivo, Tmax) was 20 min. For the same compound, the AUC (in vivo; female, Yorkshire, 20 ug, Subcut. AUC) was 0.742 ng·h/mL, the Tmax (in vivo; female, Yorkshire, Subcut Tmax) was 19 min and the “Mean CV (for AUC) for subcutaneous drug delivery” value (in vivo; 20 ug) was 18%. The “Mean CV (for Cmax) for subcutaneous drug delivery” value (in vivo; 20 ug) was 20%, the “Mean AUC, less than for 10 mg/mL drug concentration and 8-min pulses (Example 1)” value [2] was 25% and the “Mean Cmax, less than for 10 mg/mL drug concentration and 8-min pulses (Example 1)” value [2] was 25%. The “drug delivery, less compared with 10 mg/mL drug concentration and 8-minute pulses” value [2] was 25% and the “Tmax coefficient of variation over pulses 2-8” value [3] was 9%.
